Test results from patent publication US7202239B2, “Cyclohexylphenyl carboxamides tocolytic oxytocin receptor antagonists” (Wyeth, priority 2001, dated 2007).

Molecular target: human vasopressin V1a receptor subtype (Homo sapiens, UniProt P37288)
Test: Vasopressin binding in CHO cell membranes expressing human vasopressin V1a subtype receptors
Conditions: [3H]Manning ligand; for inhibition at 0.1 µM / V1a % inhibition at 100 nM: 100 nM
Description: Vasopressin Binding in Chinese Hamster Ovary Cell Membranes Expressing Human Vasopressin V1a Subtype Receptors
Chinese hamster ovary cells (CHO cells) stably transfected with the human vasopressin V1a subtype receptors were either obtained from Biosignal Inc., 1744 rue Williams, Montreal, Quebec, Canada or obtained from M. Thibonnier, Case Western Reserve University School of Medicine, Cleveland, Ohio. A. Passaging and Amplification of Cells: CHO cells transfected with the human vasopressin V1a subtype receptors obtained from M. Thibonnier (pZeoSV vector) are allowed to grow to confluency (approx. >90%) in T-150 flasks under sterile conditions, in a cell culture medium of F-12 Nutrient Mixture (HAM) with L-glutamine (Gibco Cat. # 11765-054) containing 15 mM HEPES (Gibco Cat. 15630-080), 1% antibiotic/antimycotic (add 5 mL 100×, Gibco Cat. 15240-062 per 500 mL F-12), 250 μg/mL Zeocin (add 1.25 mL of 100 mg/mL Invitrogen R-250-01 per 500 mL F-12) and 10% Fetal Bovine Serum (Qualified, heat inactivated, Gibco Cat. # 16140-063). The medium is removed by aspiration and the cells are washed with 10 mL of Hank's Balanced Salt solution (Gibco Cat. # 14175-095). The salt solution is removed by aspiration and the cells are trypsinized with 5 mL of trypsin-EDTA (0.05% trypsin, 0.53 mM EDTA-4Na, Gibco Cat. # 25300-070) for 1 min. The trypsin is removed by aspiration and the cells dislodged by tapping. Cell Culture medium (eg, 30 mL for 1:30 split) is immediately added and mixed well to inactivate trypsin. 1 mL of detached cells is added to new culture flasks containing fresh cell culture medium (eg, into 25 mL per T-150 flask), and mixed gently. The cells are incubated at 37° C. in 5% CO2. The medium is changed at 3 to 4 days interval (or as appropriate). The cells grow to confluency (approx. >75%–95%) within 7–8 days. All steps are done under sterile conditions. B. Membrane Preparation: The cells are washed twice gently with Hank's Balanced Salt solution (e.g,. use 10 mL per T-150 flask). The excess is removed and the cells are bathed for 15–30 min. in an enzyme-free Cell Dissociation Buffer (e.g. use 8 mL Hank's Based, Gibco Cat. # 13150-016 per T-150 flask) until the cells are loosened. The contents are transferred to centrifuge tubes (50 mL) kept in an ice bath. All subsequent steps are done at 4° C. The tubes are centrifuged at 300×g for 15 min (1380 rpm on SORVAL, Model RT6000D, using rotor for the 50 mL tubes). The supernatant is discarded and the cells suspended in homogeneizing buffer(10 mM Tris-HCl containing 0.25 M sucrose and 1 mM EDTA, pH 7.4) ensuring that the volume of the buffer is about ten times the volume of the cell pellet. The cells are pooled into a centrifuge tube (50 mL) and homogenized with Polytron at setting 6 for 10 sec. The homogenate is transferred into a Potter-Elvjehm homogenizer and homogenized with 3 strokes. The homogenate is centrifuged at 1500× g for 10 min at 4° C. (3100 rpm using SORVAL, model RT6000D, using the rotor for 50 mL tubes). The pellet is discarded. The supernatant is centrifuged at 100,000×g for 60 min. at 4° C. (Beckman L8-80M ultracentrifuge; spin at 37,500 rpm with rotor type 70 Ti for 50 mL tubes; 38,000 rpm with type 80Ti for 15 mL tubes; or 35,800 rpm with rotor type 45Ti). The supernantant is discarded and the pellet suspended in 3 to 4 mL of Tris buffer (50 mM TRIS-HCl, pH 7.4). The protein content is estimated by the Bradford or Lowry method. The volume of the membrane suspension is adjusted with the membrane buffer (50 mM Tris-HCl containing 0.1% BSA and 0.1 mM PMSF) to give 3.0 mg/mL (or as appropriate) of protein. The membranes are aliquoted and stored at −70° C. C. […]

Chain of human vasopressin V1a receptor subtype (P37288 whole entry): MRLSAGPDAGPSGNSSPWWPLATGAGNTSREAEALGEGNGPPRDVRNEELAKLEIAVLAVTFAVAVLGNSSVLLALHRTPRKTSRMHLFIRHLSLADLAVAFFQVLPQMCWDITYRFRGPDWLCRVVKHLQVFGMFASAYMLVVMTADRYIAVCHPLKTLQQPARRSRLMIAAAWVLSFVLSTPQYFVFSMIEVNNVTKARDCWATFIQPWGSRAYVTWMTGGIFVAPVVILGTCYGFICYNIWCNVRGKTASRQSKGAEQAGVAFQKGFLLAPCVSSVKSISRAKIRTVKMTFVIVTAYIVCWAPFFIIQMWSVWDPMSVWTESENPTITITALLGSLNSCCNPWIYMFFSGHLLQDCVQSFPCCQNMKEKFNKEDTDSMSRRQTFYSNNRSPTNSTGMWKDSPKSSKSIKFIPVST

inhibition at 0.1 µM | Structure (SMILES) | other results
49% | CN1CCCN(C(=O)c2ccc3n2Cc2ccccc2N(C(=O)c2ccc(C4CCCCC4)cc2)C3)CC1 [Example 30, [10-(4-Cyclohexyl-benzoyl)-10,11-dihydro-5H-pyrrolo[2,1-c][1,4]benzodiazepin-3-yl](4-methyl-[1,4]-diazepan-1-yl)-methanone] | –
3% | CN(C)CCN(C)C(=O)c1ccc2n1Cc1ccccc1N(C(=O)c1ccc(C3CCCCC3)cc1)C2 [Example 34, 10-(4-Cyclohexyl-benzoyl)-N-[2-(dimethylamino)-ethyl]-N-methyl-10,11-dihydro-5H-pyrrolo[2,1-c][1,4]benzodiazepine-3-carboxamide] | –
14% | CN(C)CCN1CCN(C(=O)c2ccc3n2Cc2ccccc2N(C(=O)c2ccc(C4CCCCC4)cc2)C3)CC1 [Example 41, [10-(4-Cyclohexyl-benzoyl)-10,11-dihydro-5H-pyrrolo[2,1-c][1,4]benzodiazepin-3-yl]{4-[2-(dimethylamino)ethyl]-1-piperazinyl}methanone] | –
28% | O=C(c1ccc2n1Cc1ccccc1N(C(=O)c1ccc(C3CCCCC3)cc1)C2)N1CCN(CCN2CCOCC2)CC1 [Example 42, [10(4-Cyclohexyl-benzoyl)-10,11-dihydro-5H-pyrrolo[2,1-c][1,4]benzodiazepin-3-yl]{4-[2-(4-morpholinyl)ethyl]-1-piperazinyl}methanone] | –
1% | C=CCN1CCN(C(=O)c2ccc3n2Cc2ccccc2N(C(=O)c2ccc(C4CCCCC4)cc2)C3)CC1 [Example 43, (4-Allyl-1-piperazinyl)[10-(4-cyclohexyl-benzoyl)-10,11-dihydro-5H-pyrrolo[2,1-c][1,4]benzodiazepin-3-yl]methanone] | –
1% | CC(C)N1CCN(C(=O)c2ccc3n2Cc2ccccc2N(C(=O)c2ccc(C4CCCCC4)cc2)C3)CC1 [Example 44, [10-(4-Cyclohexyl-benzoyl)-10,11-dihydro-5H-pyrrolo[2,1-c][1,4]benzodiazepin-3-yl](4-isopropyl-1-piperazinyl)methanone] | –
31% | CN(C)CCCN1CCN(C(=O)c2ccc3n2Cc2ccccc2N(C(=O)c2ccc(C4CCCCC4)cc2)C3)CC1 [Example 45, [10-(4-Cyclohexyl-benzoyl)-10,11-dihydro-5H-pyrrolo[2,1-c][1,4]benzodiazepin-3-yl]{4-[3-(dimethylamino)propyl]-1-piperazinyl}methanone] | –

The remaining lines, values behind:

Structure (SMILES) | inhibition at 0.1 µM | other results
O=C(c1ccc2n1Cc1ccccc1N(C(=O)c1ccc(C3CCCCC3)cc1)C2)N1CCN(c2ccccn2)CC1 [Example 28, [10-(4-Cyclohexyl-benzoyl)-10,11-dihydro-5H-pyrrolo[2,1-c][1,4]benzodiazepine 3-yl][4-(2-pyridinyl)-1-piperazinyl]-methanone] | – | IC50 (value in parentheses): > 1000 nM
COc1ccc(NC(=O)c2ccc3n2Cc2ccccc2N(C(=O)c2ccc(C4CCCCC4)cc2)C3)cc1 [Example 29, 10-(4-Cyclohexyl-benzoyl)-10,11-dihydro-5H-pyrrolo[2,1-c][1,4]benzodiazepine-3-carboxylic acid (4-methoxy-phenyl)-amide] | 2% | –
O=C(C(=O)N1CCC(N2CCCCC2)CC1)c1ccc2n1Cc1ccccc1N(C(=O)c1ccc(C3CCCCC3)cc1)C2 [Example 31, 1-[1.4′]Bipiperidinyl-1′-yl-2-[10-(4-cyclohexyl-benzoyl)-10,11-dihydro-5H-pyrrolo[2,1-c][1,4]benzodiazepin-3-yl]-ethane-1,2-dione] | – | V1a % inhibition at 100 nM: 69%
CN1CCN(C(=O)C(=O)c2ccc3n2Cc2ccccc2N(C(=O)c2ccc(C4CCCCC4)cc2)C3)CC1 [Example 32, 1-[10-(4-Cyclohexyl-benzoyl)-10,11-dihydro-5H-pyrrolo[2,1-c][1,4]benzodiazepin-3-yl]-2-(4-methyl-1-piperazin-1-yl)-1,2-ethane-1,2-dione] | – | V1a % inhibition at 100 nM: 56%
CN(C)CCCNC(=O)c1ccc2n1Cc1ccccc1N(C(=O)c1ccc(C3CCCCC3)cc1)C2 [Example 33, 10-(4-Cyclohexyl-benzoyl)-N-[3-(dimethylamino)propyl]-10,11-dihydro-5H-pyrrolo[2,1-c][1,4]benzodiazepine-3-carboxamide] | 27% | –
CN(C)CCCN(C)C(=O)c1ccc2n1Cc1ccccc1N(C(=O)c1ccc(C3CCCCC3)cc1)C2 [Example 35, 10-(4-Cyclohexyl-benzoyl)-N-[3-(dimethylamino)propyl]N-methyl-10,11-dihydro-5H-pyrrolo[2,1-c][1,4]benzodiazepine-3-carboxamide] | 12% | –
O=C(NCCCn1ccnc1)c1ccc2n1Cc1ccccc1N(C(=O)c1ccc(C3CCCCC3)cc1)C2 [Example 36, 10-(4-Cyclohexyl-benzoyl)-N-[3-(1H-imidazol-1-yl)propyl]-10,11-dihydro-5H-pyrrolo[2,1-c][1,4]benzodiazepine-3-carboxamide] | 3% | –
O=C(NCCN1CCCCC1)c1ccc2n1Cc1ccccc1N(C(=O)c1ccc(C3CCCCC3)cc1)C2 [Example 37, 10-(4-Cyclohexyl-benzoyl)-N-[2-(1-piperidinyl)ethyl]-10,11-dihydro-5H-pyrrolo[2,1-c][1,4]benzodiazepine-3-carboxamide] | 23% | –
CN1CCCC1CCNC(=O)c1ccc2n1Cc1ccccc1N(C(=O)c1ccc(C3CCCCC3)cc1)C2 (stereo not shown) [Example 38, 10-(4-Cyclohexyl-benzoyl)-N-[2-(1-methyl-2-pyrrolidinyl)ethyl]-10,11-dihydro-5H-pyrrolo[2,1-c][1,4]benzodiazepine-3-carboxamide] | 31% | –
CN1CCC(N(C)C(=O)c2ccc3n2Cc2ccccc2N(C(=O)c2ccc(C4CCCCC4)cc2)C3)CC1 [Example 39, 10-(4-Cyclohexyl-benzoyl)-N-methyl-N-(1-methyl-4-piperidinyl)-10,11-dihydro-5H-pyrrolo[2,1-c][1,4]benzodiazepine-3-carboxamide] | 43% | –
CN1CCC(N(C)C(=O)c2ccc3n2Cc2ccccc2N(C(=O)c2ccc(C4CCCCC4)cc2)C3)C1 (stereo not shown) [Example 40, 10-(4-Cyclohexyl-benzoyl)-N-methyl-N-(1-methyl-3-pyrrolidinyl)-10,11-dihydro-5H-pyrrolo[2,1-c][1,4]benzodiazepine-3-carboxamide] | 22% | –
O=C(c1ccc(C2CCCCC2)cc1)N1Cc2ccc(C(=O)N3CCC[C@H]3CN3CCCC3)n2Cc2ccccc21 [Example 46, [10-(4-Cyclohexyl-benzoyl)-10,11-dihydro-5H-pyrrolo[2,1-c][1.4]benzodiazepin-3-yl][(2S)-2-(1-pyrrolidinylmethyl)pyrrolidinyl]methanone] | – | V1a % inhibition at 100 nM: 21%
CN(C)[C@@H]1CCN(C(=O)c2ccc3n2Cc2ccccc2N(C(=O)c2ccc(C4CCCCC4)cc2)C3)C1 [Example 47, [10-(4-Cyclohexyl-benzoyl)-10,11-dihydro-5H-pyrrolo[2,1-C][1,4]benzodiazepin-3-yl][(3R)-3-(dimethylamino)pyrrolidinyl]methanone] | – | V1a % inhibition at 100 nM: 28%
O=C(c1ccc2n1Cc1ccccc1N(C(=O)c1ccc(C3CCCCC3)cc1)C2)N1CCN(CCO)CC1 [Example 48, [10-(4-Cyclohexyl-benzoyl)-10,11-dihydro-5H-pyrrolo[2,1-c][1,4]benzodiazepin-3-y][4-(2-hydroxyethyl)-1-piperazinyl]methanone] | – | V1a % inhibition at 100 nM: 35%
O=C(NCCc1ccccn1)c1ccc2n1Cc1ccccc1N(C(=O)c1ccc(C3CCCCC3)cc1)C2 [Example 49, 10-(4-Cyclohexyl-benzoyl)-N-[2-(2-pyridinyl)ethyl]-10,11-dihydro-5H-pyrrolo[2,1-c][1,4]benzodiazepine-3-carboxamide] | 0% | –
